Assay results published in ChEMBL document CHEMBL1132874, “Synthesis and structure-activity relationship of novel pyridyl ethers for the nicotinic acetylcholine receptor” (Bioorg Med Chem Lett, 2000).

The compounds below were run against Neuronal acetylcholine receptor; alpha4/beta2 (Rattus norvegicus, UniProt P09483+P12390) (assay: Evaluated for binding affinity towards nicotinic acetylcholine receptor alpha4-beta2).
Type: protein-complex assay

Sequence of Neuronal acetylcholine receptor; alpha4/beta2 (P09483 whole entry): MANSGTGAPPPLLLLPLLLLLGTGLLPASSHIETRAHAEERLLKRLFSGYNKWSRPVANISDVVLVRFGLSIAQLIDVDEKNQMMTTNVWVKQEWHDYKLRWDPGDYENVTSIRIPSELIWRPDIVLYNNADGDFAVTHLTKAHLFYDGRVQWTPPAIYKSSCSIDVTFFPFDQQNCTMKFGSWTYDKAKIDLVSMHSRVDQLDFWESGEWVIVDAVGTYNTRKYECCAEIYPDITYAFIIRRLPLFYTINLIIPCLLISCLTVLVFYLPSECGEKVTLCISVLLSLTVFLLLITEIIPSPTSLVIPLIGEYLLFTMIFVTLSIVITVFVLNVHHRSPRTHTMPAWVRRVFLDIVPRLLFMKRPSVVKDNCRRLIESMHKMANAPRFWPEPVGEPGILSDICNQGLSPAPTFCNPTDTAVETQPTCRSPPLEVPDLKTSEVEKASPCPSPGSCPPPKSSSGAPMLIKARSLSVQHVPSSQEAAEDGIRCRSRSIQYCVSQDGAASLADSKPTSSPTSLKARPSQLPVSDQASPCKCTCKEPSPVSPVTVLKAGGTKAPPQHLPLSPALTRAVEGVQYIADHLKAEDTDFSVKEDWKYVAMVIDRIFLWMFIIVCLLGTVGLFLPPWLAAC
Sequence of Neuronal acetylcholine receptor; alpha4/beta2 (P12390 whole entry): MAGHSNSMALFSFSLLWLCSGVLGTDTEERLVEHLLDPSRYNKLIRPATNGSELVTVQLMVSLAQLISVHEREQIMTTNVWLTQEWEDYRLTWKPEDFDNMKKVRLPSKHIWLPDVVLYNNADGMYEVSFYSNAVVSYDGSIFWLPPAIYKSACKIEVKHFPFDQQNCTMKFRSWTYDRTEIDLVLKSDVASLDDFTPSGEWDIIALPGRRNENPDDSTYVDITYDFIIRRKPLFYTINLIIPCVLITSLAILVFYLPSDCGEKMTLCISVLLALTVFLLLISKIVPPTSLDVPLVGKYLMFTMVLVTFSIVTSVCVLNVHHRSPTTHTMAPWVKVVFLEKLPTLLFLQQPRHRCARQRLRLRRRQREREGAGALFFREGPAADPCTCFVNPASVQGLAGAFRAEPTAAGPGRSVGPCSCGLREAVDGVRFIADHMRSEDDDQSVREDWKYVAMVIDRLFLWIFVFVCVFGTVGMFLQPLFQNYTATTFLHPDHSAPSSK

Point of comparison: C=Cc1cc(O[C@@H]2CCNC2)cnc1Cl, IC50 0.14 µM. Against it:
- C#Cc1cncc(O[C@@H]2CCNC2)c1 — 2.3-fold lower, 0.062 µM
- c1ccc(-c2cncc(O[C@@H]3CCNC3)c2)cc1 — 13-fold higher, 1.82 µM
- C#Cc1cc(O[C@@H]2CCNC2)cnc1Cl — 3-fold lower, 0.046 µM
- C=Cc1cncc(O[C@@H]2CCNC2)c1 — 6.3-fold higher, 0.883 µM
- c1cc(-c2cncc(O[C@@H]3CCNC3)c2)ccn1 — 4.1-fold higher, 0.571 µM
- Clc1ncc(O[C@@H]2CCNC2)cc1-c1ccncc1 — 2.2-fold lower, 0.065 µM
- Clc1cccc(-c2cncc(O[C@@H]3CCNC3)c2)c1 — 6.7-fold higher, 0.94 µM
- CCN1CCC(Oc2cccnc2)C1 (stereo not given) — higher, > 10 µM
- N#Cc1ccc(-c2cncc(O[C@@H]3CCNC3)c2)cc1 — 3.9-fold higher, 0.544 µM
- Cc1cc(O[C@@H]2CCNC2)cnc1Cl — 2.2-fold lower, 0.064 µM
- CC(C)N1CCC(Oc2cccnc2)C1 (stereo not given) — higher, > 10 µM
- Clc1cccc(-c2cc(O[C@@H]3CCNC3)cnc2Cl)c1 — within 1.5-fold, 0.103 µM
- c1cncc(OC2CNC2)c1 — higher, > 10 µM
- Clc1ncc(O[C@@H]2CCNC2)cc1-c1ccccc1 — 1.9-fold lower, 0.075 µM
